Source: patent US8785388B2, “TAT-BH3 methods for treating arthritis” (Saint Louis University, priority 2007, dated 2014)
Square brackets hold non-standard residues; d marks the D form. Peptide text beside a SMILES is read from it. Orn = NCCC[C@H](N)C(=O)O

Legend:
[1] = system: macrophages in arthritic joints; assay: Macrophage numbers in ankle sections stained for F4/80 antigen; format: in vivo, mice
Excerpt: FIG. 4A is representative photomicrograph of ankle sections stained for F4/80 antigen from saline- and BH3-peptide treated mice.
TAT-BH3 peptides treatment reduces the numbers of myeloid cells in arthritic joints. Neutrophils and macrophages are required for the development of K/B×N serum transfer induced arthritis 40-42. To this end, the numbers of polymorphonuclear cell and macrophages in saline and BH3 peptide arthritic mice were quantified. […] The milieu of the RA joint is crucial for the initiation and the perpetuation of inflammatory arthritis. Previous studies have shown that mice lacking Bim display increased levels of pro-inflammatory factors in the joint that is associated with increased numbers of neutrophils and macrophages and more articular destruction.

[2] = system: IL-1β, TNFα, MCP-1, KC, MMP-3; assay: ELISA of pro-inflammatory molecules in ankle extracts; format: in vivo, mouse; set-up: IL-1β / TNFα / MCP-1 / KC / MMP-3: unit not given here; settings: ankle joints
Method: (§1) At each time point and prior to euthanasia, the degree of arthritis as indicated by joint swelling was quantitated by measuring two perpendicular diameters of the ankles using a caliper (Lange Caliper: Cambridge Scientific Industries, Cambridge Mass.). Joint circumference was calculated using the geometric formula of ellipse circumference (2πX √(a^2+b^2)/2). Following euthanasia, serum was isolated from peripheral blood by cardiac stick and ankle joints were removed. One of the ankle joints was fixed in 10% neutral buffered formalin for 24 hours, decalcified in EDTA-decalcification buffer for two weeks, embedded in paraffin, and sectioned. The other ankle joint was placed in liquid nitrogen, grounded into a fine powder by mortal and pestle, digested in protein lysis buffer ([…], 0.5% NP-40, 50 mM Tris, and 2 mM EDTA) in the presence of phosphatase and protease inhibitors, and homogenized on ice for 20 seconds. To examine any toxicity due to systemic delivery of TAT-Bim peptides, alkaline phosphatase (ALP), […] (AST), alanine aminotransferase (ALT), and blood urea nitrogen levels were measured.
For detection of mouse IL-1β, TNFα, MCP-1, KC, or MMP-3 in ankle extracts, sandwich ELISAs were performed according to the manufacturer's instructions (R & D Systems, Minneapolis, Minn.). The sensitivity for all cytokines was 15.6 pg/mL for IL-1β and KC, 7.813 pg/mL for TNFα and MCP-1, and 0.312 ng/mL for MMP3. ELISAs were quantitated by absorbance at 450 nm on a microplate reader (BioRad, Hercules, Calif.). Data obtained using ELISA on ankle extracts were normalized by the total protein concentration (μg/μL) for each individual ankle extract.
Mice were euthanized at seven days post-serum transfer. Ankle joints from each mouse were isolated, snap frozen, grounded into a fine powder, lysed, and examined for IL-1β, TNFα, MCP-1, KC, and MMP-3 production using an ELISA. Data are shown as μg/μL per joint. Values represent the mean±standard error, which were compared by Student's t-test.

[3] = Toxicity: serum ALP, AST, ALT, blood urea nitrogen and liver histology in arthritic mice; format: in vivo
Method: as §1
Paraffin embedded ankle or liver sections were stained with hematoxylin and eosin (H&E), Safranin O and methyl green. Histopathological scoring was performed and ankle sections were evaluated by examining at least 3 sections/ankle and 3 fields/section at 400× magnification. H&E ankle sections were scored on a 0-5 scale for inflammation, with 0=normal, 1=minimal infiltration, 2=mild infiltration, 3=moderate infiltration, […], mad 5=severe infiltration. Bone erosion was scored on a 0-5 scale by viewing H&E ankle sections, with 0=no or normal bone resorption, 1=small areas of resorption, 2=more numerous areas of resorption, 3=obvious resorption, 4=full thickness defects in the bone without distortion of the profile, 5=full thickness defects in the bone with distortion of the profile. H&E ankle stained sections were scored on a 0-5 scale for pannus formation, with 0=no pannus formation, 1=minimal pannus formation, 2=mild pannus formation, 3=moderate pannus formation, 4=marked pannus formation, and 5=severe pannus formation. H&E and Safranin 0 and methyl green sections were scored on a 0-5 scale for cartilage damage, with 0=no damage, 1-2=superficial cartilage destruction, 3-4=cartilage destruction to middle zone, 5=cartilage destruction to tide mark. Polymorphonuclear (PMN) leukocyte infiltration: 0=no PMNs, 1=rare scattered PMNs, 2=more frequent scattered PMNs, 3=small clusters of PMNs, 4=larger clusters of PMNs, mad 5=sheets of PMNs (abscess). Histopathological scoring was conducted on an Olympus BX40 microscope (1000×). Photographs were taken on a Nikon microscope equipped with the Nikon digital camera DMX 1200.

[4] = system: mature neutrophils in bone marrow; assay: Bone marrow neutrophil numbers (flow cytometry); format: in vivo, mice; settings: as compared to saline and TAT-inactive BH3
Method: Peripheral blood and bone marrow were isolated from mice following euthanasia. Total leukocyte numbers were determined using an automated hematology analyzer ABX Pentra 60 (Diamond Diagnostics, Inc, Holliston, Mass.). The red blood cells in peripheral blood were lysed and the remaining cells were fixed with BD FACS lysing solution (BD Biosciences, Pharmingen) following incubation with antibodies. Bone marrow cells were isolated by flushing Dulbecco's Modified Eagle Medium (DMEM) (Gibco, Grand Island, N.Y.) through the tibias and red blood cells were lysed with BD PharM Lyse (BD Biosciences, Pharmingen) prior to incubation with antibodies. Cells with incubated with Fc Block (BD Biosciences, Pharmingen) then stained with fluorochrome conjugated antibodies to CD45, CD11b, Gr-1, CD62L, Ly-6C, Ly-6G, CD31 (BD Biosciences, Pharmingen) or isotype control antibodies for 30 minutes. Cells were acquired on a BD LSRII (BD Biosciences, Pharmingen) using Diva Software at the Saint Louis University Core Flow Cytometry Facility. All analysis was performed using FlowJo software (Tree Star Inc.).
TAT-BH3 peptides decrease the number of neutrophils in circulation and in bone marrow. We have shown that numbers of neutrophils and macrophages are reduced in the joints of mice treated with TAT-BH3 peptides.

[5] = as compared to TAT-inactive BH3
[6] = seven days post-serum transfer, mean ± standard error
[7] = TAT-BH3 vs TAT-inactive BH3 and saline

SMILES: CC[C@H](C)[C@H](NC(=O)[C@H](CCCNC(=N)N)NC(=O)[C@H](CCCNC(=N)N)NC(=O)[C@H](CC(C)C)NC(=O)[C@H](CCC(=O)O)NC(=O)[C@H](CCC(N)=O)NC(=O)[C@H](C)NC(=O)[C@@H](NC(=O)[C@H](Cc1c[nH]c2ccccc12)NC(=O)[C@@H](NC(=O)[C@H](CCC(=O)O)NC(=O)[C@H](CCCNC(=N)N)NC(=O)[C@H](CCCNC(=N)N)NC(=O)[C@H](CCCNC(=N)N)NC(=O)[C@H](CCCN)NC(=O)[C@H](CCCNC(=N)N)NC(=O)[C@H](CCCNC(=N)N)NC(=O)[C@H](CCCCN)NC(=O)[C@H](CCCCN)NC(=O)[C@H](CCCNC(=N)N)NC(C)=O)[C@@H](C)CC)[C@@H](C)CC)C(=O)NCC(=O)N[C@@H](CC(=O)O)C(=O)N[C@@H](CCC(=O)O)C(=O)N[C@@H](Cc1ccccc1)C(=O)N[C@@H](CC(N)=O)C(=O)N[C@@H](C)C(=O)N[C@@H](Cc1ccc(O)cc1)C(=O)N[C@@H](Cc1ccc(O)cc1)C(=O)N[C@@H](C)C(=O)N[C@@H](CCCNC(=N)N)C(=O)O [TAT-BH3] (Ac-RKKRR[Orn]RRREIWIAQELRRIGDEFNAYYAR-OH)
- average number of macrophages in the synovial lining [1, 5]: no statistical difference
- decrease in numbers of macrophages within the pannus region [1, 5]: 68%
- decrease in numbers of macrophages within the pannus region ([1]; as compared to saline): 77%
- IL-1β [2, 6]: 522 ± 127
- KC [2, 6]: 308 ± 78
- MCP-1 [2, 6]: 131 ± 28
- MMP-3 [2, 6]: 9 ± 3
- TNFα [2, 6]: 4.5 ± 0.3
- change in level of TNFα ([2]; vs saline or TAT-inactive BH3): no change
- decrease in level of IL-1β ([2]; vs saline or TAT-inactive BH3): 37%
- levels of MMP-3 reduced ([2]; vs saline or TAT-inactive BH3): 47%
- production of KC diminished ([2]; vs saline or TAT-inactive BH3): 28%
- production of MCP-1 diminished ([2]; vs saline or TAT-inactive BH3): 47%
- ALT levels [3, 7]: statistical difference
- BUN levels [3, 7]: statistical difference
- increase in ALP levels [3, 5]: 1.7 fold
- increase in AST levels [3, 5]: 1.5 fold
- increase in ALP levels ([3]; as compared to saline): 1.4 fold
- increase in AST levels ([3]; as compared to saline): 1.3 fold
- liver histology ([3]; liver sections of arthritic mice): no gross histologic abnormalities
- decrease in numbers of mature neutrophils in bone marrow [4]: 50%
